# Results taken from patent US10870647B2, “Imidazopyridine derivative, method for preparing same, and pharmaceutical composition containing same as active ingredient for preventing or treating cancer” (DAEGU-GYEONGBUK MEDICAL INNOVATION FOUNDATION, priority 2016, dated 2020).
# What was measured:
# Assay in all cases: Kinase selectivity, scanMAX Kinase assay panel (DiscoverX), % control at 1 uM
# Assay type in all cases: binding
# [1] = molecular target: T1, scanMAX Kinase assay panel (Homo sapiens, UniProt O43683); settings: BUB1; 1 uM; read-out: Percent Control (%)
# T1 construct: purchased DiscoverX
# T1 sequence (O43683 whole entry): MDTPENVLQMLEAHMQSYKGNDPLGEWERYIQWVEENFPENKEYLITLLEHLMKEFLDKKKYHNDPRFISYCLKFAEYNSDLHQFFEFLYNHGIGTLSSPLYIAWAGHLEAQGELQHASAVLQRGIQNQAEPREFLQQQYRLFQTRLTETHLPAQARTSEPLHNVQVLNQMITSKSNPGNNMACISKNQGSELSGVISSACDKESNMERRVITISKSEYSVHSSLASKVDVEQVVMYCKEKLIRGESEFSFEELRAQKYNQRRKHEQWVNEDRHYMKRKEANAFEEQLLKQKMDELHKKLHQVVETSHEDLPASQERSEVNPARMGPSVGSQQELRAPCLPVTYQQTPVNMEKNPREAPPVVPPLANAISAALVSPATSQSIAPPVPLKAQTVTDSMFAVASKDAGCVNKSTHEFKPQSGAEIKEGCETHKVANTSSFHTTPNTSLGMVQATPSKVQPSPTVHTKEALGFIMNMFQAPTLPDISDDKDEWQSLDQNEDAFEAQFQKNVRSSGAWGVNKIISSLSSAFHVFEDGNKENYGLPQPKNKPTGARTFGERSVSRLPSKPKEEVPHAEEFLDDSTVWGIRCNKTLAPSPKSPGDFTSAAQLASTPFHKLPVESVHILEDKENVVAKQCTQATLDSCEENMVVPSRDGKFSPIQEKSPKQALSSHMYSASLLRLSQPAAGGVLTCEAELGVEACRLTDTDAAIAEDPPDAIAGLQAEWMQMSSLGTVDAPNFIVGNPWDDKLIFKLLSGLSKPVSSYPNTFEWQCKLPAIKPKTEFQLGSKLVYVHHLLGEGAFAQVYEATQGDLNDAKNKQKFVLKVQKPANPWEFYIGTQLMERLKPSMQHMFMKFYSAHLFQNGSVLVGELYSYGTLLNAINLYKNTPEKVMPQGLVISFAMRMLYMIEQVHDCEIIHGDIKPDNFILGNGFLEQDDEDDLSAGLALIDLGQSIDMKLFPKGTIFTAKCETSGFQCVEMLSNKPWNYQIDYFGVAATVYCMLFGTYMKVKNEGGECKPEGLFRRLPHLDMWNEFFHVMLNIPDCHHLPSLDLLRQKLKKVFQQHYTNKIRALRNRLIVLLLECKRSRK
# Summary of the method: (§1)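 Activity was called for kinases showing % control under 35, calculated from compound signal relative to positive and negative controls. Each compound screened at 1 uM against the DiscoverX scanMAX panel.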
# [2] = molecular target: T2, scanMAX Kinase assay panel (Homo sapiens, UniProt O60285); settings: ARK5; 1 uM; read-out: Percent Control (%)
# T2 construct: purchased DiscoverX
# T2 sequence (O60285 1-661): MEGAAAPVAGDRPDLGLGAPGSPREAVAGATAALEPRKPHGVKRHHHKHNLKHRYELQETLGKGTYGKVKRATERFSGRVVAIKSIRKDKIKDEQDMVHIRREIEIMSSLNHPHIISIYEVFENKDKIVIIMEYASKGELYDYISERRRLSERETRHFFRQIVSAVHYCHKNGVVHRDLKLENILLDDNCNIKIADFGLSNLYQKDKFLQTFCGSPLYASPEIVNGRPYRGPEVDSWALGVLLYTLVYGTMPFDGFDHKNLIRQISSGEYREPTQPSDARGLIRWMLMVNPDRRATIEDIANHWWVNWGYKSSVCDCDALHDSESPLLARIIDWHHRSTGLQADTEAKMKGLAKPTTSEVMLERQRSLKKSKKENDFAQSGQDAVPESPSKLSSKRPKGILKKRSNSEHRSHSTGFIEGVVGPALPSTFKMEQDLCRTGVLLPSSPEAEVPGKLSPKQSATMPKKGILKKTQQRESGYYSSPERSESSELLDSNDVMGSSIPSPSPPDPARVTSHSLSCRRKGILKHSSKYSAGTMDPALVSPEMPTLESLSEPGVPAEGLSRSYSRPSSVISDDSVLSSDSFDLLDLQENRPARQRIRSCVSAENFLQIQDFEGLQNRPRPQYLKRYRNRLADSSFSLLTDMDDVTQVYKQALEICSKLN
# Summary of the method: as §1
# [3] = molecular target: T3, scanMAX Kinase assay panel (Homo sapiens, UniProt P42336, E542K); settings: PIK3CA (E542K); 1 uM; read-out: Percent Control (%)
# T3 construct: purchased DiscoverX
# T3 sequence (P42336 whole entry E542K): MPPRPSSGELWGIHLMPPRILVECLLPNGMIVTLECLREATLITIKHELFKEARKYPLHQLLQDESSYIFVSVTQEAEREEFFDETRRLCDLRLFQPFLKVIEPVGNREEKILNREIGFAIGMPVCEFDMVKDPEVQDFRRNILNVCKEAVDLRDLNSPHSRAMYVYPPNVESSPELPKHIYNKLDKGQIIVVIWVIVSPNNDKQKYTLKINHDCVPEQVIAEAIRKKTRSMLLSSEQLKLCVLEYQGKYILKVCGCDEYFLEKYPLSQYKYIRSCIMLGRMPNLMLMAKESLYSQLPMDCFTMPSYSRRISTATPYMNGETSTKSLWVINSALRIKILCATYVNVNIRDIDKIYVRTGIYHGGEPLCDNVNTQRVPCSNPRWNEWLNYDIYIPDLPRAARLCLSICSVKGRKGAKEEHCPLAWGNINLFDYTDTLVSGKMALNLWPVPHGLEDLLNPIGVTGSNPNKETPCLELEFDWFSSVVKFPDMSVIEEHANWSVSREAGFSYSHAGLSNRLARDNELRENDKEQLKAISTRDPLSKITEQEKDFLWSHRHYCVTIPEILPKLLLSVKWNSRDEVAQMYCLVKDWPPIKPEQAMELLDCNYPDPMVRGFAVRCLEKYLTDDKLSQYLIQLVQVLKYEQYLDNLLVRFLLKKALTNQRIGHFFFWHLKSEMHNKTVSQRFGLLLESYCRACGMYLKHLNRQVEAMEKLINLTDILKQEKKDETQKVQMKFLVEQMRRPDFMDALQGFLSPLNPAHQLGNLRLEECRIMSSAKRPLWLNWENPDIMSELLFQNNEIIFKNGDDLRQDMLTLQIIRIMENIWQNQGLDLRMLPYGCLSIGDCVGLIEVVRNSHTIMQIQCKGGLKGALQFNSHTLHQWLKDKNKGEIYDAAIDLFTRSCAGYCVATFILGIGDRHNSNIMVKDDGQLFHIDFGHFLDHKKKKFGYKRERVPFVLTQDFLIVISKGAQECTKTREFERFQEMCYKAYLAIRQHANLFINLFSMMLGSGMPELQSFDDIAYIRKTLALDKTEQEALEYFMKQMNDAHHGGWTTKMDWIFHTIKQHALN
# Summary of the method: as §1
# [4] = molecular target: T4, scanMAX Kinase assay panel (Homo sapiens, UniProt P50613); settings: CDK7; 1 uM; read-out: Percent Control (%)
# T4 construct: purchased DiscoverX
# T4 sequence (P50613 whole entry): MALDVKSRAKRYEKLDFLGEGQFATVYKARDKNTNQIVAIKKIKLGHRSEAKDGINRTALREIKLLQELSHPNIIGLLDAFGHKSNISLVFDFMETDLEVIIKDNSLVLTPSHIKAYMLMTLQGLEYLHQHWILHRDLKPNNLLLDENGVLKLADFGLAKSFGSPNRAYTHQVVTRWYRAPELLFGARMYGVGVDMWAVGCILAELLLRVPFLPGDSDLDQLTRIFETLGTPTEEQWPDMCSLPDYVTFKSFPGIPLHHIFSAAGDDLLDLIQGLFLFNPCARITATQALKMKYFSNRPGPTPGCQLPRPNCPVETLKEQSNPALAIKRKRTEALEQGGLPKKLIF
# Summary of the method: as §1
# [5] = molecular target: T5, scanMAX Kinase assay panel (Homo sapiens, UniProt Q09013); settings: DMPK; 1 uM; read-out: Percent Control (%)
# T5 construct: purchased DiscoverX
# T5 sequence (Q09013 1-629): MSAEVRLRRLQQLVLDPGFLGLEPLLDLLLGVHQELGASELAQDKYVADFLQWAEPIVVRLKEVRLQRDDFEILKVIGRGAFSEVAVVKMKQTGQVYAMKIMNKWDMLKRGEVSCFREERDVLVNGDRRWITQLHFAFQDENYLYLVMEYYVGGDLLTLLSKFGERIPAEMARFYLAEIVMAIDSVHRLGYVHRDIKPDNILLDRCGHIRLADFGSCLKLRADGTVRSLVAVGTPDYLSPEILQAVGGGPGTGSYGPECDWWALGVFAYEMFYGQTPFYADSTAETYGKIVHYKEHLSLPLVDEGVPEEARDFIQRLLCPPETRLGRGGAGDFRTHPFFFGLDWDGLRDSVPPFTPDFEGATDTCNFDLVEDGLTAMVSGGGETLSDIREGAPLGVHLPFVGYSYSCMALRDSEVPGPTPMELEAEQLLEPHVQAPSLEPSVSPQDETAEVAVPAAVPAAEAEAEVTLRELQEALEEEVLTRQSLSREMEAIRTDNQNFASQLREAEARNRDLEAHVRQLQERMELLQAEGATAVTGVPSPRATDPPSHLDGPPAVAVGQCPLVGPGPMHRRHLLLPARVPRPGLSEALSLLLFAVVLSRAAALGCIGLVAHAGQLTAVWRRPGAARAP
# Summary of the method: as §1
# [6] = molecular target: T6, scanMAX Kinase assay panel (Homo sapiens, UniProt Q13546); settings: RIPK1; 1 uM; read-out: Percent Control (%)
# T6 construct: purchased DiscoverX
# T6 sequence (Q13546 1-671): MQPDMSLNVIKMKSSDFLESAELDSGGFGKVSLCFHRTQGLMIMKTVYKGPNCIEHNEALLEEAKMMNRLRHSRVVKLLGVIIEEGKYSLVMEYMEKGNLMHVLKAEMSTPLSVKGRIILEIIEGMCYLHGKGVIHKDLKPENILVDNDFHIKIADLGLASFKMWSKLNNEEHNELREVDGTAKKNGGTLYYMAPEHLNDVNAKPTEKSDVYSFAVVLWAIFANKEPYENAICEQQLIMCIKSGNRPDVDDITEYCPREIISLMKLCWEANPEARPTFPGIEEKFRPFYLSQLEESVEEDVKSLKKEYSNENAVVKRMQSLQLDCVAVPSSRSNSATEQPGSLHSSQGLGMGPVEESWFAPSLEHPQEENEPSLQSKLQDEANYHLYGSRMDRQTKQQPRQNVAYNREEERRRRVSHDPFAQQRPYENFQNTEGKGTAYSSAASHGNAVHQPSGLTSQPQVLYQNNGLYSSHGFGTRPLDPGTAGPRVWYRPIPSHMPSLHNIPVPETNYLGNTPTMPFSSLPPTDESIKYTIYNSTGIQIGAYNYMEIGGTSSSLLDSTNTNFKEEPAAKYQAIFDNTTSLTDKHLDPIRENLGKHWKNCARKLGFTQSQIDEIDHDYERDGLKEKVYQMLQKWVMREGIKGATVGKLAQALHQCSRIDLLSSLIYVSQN
# Summary of the method: as §1
# [7] = molecular target: T7, scanMAX Kinase assay panel (Homo sapiens, UniProt Q16584); settings: MLK3; 1 uM; read-out: Percent Control (%)
# T7 construct: purchased DiscoverX
# T7 sequence (Q16584 whole entry): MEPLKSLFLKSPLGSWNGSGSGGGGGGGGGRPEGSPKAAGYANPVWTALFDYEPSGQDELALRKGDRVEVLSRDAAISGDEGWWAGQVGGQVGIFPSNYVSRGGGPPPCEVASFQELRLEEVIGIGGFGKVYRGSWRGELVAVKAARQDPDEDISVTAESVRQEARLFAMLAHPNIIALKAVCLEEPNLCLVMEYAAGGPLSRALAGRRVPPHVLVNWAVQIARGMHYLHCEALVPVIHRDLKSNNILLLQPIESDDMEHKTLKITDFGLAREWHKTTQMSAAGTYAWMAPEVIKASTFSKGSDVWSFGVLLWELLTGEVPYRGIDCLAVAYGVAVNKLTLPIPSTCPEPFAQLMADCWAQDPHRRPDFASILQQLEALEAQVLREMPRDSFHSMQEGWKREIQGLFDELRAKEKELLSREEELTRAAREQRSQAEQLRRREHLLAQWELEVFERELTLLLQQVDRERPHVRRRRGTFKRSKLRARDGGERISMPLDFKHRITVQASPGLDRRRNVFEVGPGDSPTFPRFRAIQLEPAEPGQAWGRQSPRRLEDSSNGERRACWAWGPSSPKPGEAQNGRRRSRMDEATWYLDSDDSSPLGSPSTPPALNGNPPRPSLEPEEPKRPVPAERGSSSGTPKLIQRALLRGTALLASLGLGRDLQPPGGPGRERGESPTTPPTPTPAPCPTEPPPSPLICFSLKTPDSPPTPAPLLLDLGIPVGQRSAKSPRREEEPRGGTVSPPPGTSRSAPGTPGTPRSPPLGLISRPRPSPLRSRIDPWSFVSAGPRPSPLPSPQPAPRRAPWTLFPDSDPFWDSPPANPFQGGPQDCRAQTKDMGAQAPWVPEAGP
# Summary of the method: as §1
# [8] = molecular target: T8, scanMAX Kinase assay panel (Homo sapiens, UniProt Q16659); settings: ERK3; 1 uM; read-out: Percent Control (%)
# T8 construct: purchased DiscoverX
# T8 sequence (Q16659 whole entry): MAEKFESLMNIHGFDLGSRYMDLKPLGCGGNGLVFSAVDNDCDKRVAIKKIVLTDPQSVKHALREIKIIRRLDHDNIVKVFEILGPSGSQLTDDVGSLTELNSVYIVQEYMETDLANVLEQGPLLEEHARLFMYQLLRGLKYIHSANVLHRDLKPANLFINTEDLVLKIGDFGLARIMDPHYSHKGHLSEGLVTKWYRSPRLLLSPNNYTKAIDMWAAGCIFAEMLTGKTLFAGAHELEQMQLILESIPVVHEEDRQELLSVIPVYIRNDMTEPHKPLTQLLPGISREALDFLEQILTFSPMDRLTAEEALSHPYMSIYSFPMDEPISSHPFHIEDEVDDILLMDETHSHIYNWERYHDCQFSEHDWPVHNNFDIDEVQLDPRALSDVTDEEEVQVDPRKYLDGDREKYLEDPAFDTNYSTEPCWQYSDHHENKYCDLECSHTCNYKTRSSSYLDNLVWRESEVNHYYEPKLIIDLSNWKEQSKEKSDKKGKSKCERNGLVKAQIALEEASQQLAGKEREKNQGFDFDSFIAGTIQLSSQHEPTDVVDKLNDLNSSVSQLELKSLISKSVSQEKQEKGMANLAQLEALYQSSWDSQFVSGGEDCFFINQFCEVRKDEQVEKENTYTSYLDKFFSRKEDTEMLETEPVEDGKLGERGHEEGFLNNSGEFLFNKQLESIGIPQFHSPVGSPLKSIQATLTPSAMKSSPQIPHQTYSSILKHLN
# Summary of the method: as §1
# [9] = molecular target: T9, scanMAX Kinase assay panel (Homo sapiens, UniProt Q9P1W9); settings: PIM2; 1 uM; read-out: Percent Control (%)
# T9 construct: purchased DiscoverX
# Summary of the method: as §1
# [10] = molecular target: T10, scanMAX Kinase assay panel (Homo sapiens, UniProt Q9UBF8); settings: PIK4CB; 1 uM; read-out: Percent Control (%)
# T10 construct: purchased DiscoverX
# T10 sequence (Q9UBF8 whole entry): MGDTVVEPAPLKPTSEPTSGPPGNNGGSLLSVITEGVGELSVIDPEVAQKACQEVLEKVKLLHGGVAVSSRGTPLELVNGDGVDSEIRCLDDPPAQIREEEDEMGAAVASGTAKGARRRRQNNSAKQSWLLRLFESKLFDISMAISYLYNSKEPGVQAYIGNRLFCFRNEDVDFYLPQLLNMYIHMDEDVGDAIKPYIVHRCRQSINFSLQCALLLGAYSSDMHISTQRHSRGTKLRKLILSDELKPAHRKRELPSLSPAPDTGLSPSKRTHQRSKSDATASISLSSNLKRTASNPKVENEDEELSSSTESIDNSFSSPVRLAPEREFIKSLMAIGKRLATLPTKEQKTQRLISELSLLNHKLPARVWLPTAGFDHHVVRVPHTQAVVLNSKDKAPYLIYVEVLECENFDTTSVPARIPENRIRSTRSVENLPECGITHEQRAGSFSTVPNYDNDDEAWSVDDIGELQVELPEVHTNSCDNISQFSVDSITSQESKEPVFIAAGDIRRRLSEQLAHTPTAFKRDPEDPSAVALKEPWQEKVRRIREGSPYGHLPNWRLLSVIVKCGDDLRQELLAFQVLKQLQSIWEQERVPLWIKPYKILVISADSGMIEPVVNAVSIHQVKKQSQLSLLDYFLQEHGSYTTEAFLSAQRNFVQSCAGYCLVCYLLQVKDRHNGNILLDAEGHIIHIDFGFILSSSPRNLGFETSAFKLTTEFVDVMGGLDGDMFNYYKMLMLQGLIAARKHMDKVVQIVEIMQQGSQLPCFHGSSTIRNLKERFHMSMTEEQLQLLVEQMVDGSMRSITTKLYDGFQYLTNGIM
# Summary of the method: as §1
smiles,measurement,setting,value
"Cc1ccc(C(=O)Nc2ccc(CN3CCN(C)CC3)c(C(F)(F)F)c2)cc1C#Cc1cnc2c(Nc3cnn(C)c3)cccn12 [Example 1, 4-methyl-3-((8-((1-methyl-1H-pyrazol-4-yl)amino)imidazo[1,2-a]pyridin-3-yl)ethynyl)-N-(4-((4-methylpiperazin-1-yl)methyl)-3-(trifluoromethyl)phenyl)benzamide]",remaining binding at 1 µM,[1],84%
same,remaining binding at 1 µM,[2],99%
same,remaining binding at 1 µM,[3],100%
same,remaining binding at 1 µM,[4],4%
same,remaining binding at 1 µM,[5],100%
same,remaining binding at 1 µM,[6],0%
same,remaining binding at 1 µM,[7],1%
same,remaining binding at 1 µM,[8],100%
same,remaining binding at 1 µM,[9],100%
same,remaining binding at 1 µM,[10],88%
"Cc1cn(-c2cc(NC(=O)c3ccc(C)c(C#Cc4cnc5c(Nc6cnn(C)c6)cccn45)c3)cc(C(F)(F)F)c2)cn1 [Example 12, 4-methyl-N-(3-(4-methyl-1H-imidazol-1-yl)-5-(trifluoromethyl)phenyl)-3-((8-((1-methyl-1H-pyrazol-4-yl)amino)imidazo[1,2-a]pyridin-3-yl)ethynyl)benzamide]",remaining binding at 1 µM,[1],100%
same,remaining binding at 1 µM,[2],100%
same,remaining binding at 1 µM,[3],100%
same,remaining binding at 1 µM,[4],66%
same,remaining binding at 1 µM,[5],96%
same,remaining binding at 1 µM,[6],5%
same,remaining binding at 1 µM,[7],14%
same,remaining binding at 1 µM,[8],94%
same,remaining binding at 1 µM,[9],91%
same,remaining binding at 1 µM,[10],100%
Cc1ccc(NC(=O)C2(C(=O)Nc3ccc(F)cc3)CC2)cc1C#Cc1cnc2c(Nc3cnn(C(C)C)c3)cccn12 [Example 78],remaining binding at 1 µM,[1],100%
same,remaining binding at 1 µM,[2],94%
same,remaining binding at 1 µM,[3],100%
same,remaining binding at 1 µM,[4],82%
same,remaining binding at 1 µM,[5],92%
same,remaining binding at 1 µM,[6],19%
same,remaining binding at 1 µM,[7],94%
same,remaining binding at 1 µM,[8],100%
same,remaining binding at 1 µM,[9],100%
same,remaining binding at 1 µM,[10],99%
